Test results: patent US20230220021A1, “CYCLIC PEPTIDE INHIBITORS OF PSD-95 AND USES THEREOF” (University of Copenhagen, priority 2020, published 2023)
Where a SMILES comes first, the peptide text is derived from it. [ ]: non-standard residue; d: D form.

Molecular target: T1, PSD-95-PDZ2 (Homo sapiens, UniProt P78352)
T1 construct: 7xHis (N); made in house; host or cells: Escherichia coli B21 pLys (for the mutants, 'as previously described')
Assay: Fluorescence polarization (FP) competition assay against cyclic nNOS TAMRA probe
Format: binding
Details: for Ki: cyclic nNOS TAMRA probe, mean of triplicates, N.B. = not binding, read-out: Ki; for Relative Ki (Ki mut/Ki WT): FP inhibition constant normalized to WT value

T1 sequence (P78352 160-246 limits assumed): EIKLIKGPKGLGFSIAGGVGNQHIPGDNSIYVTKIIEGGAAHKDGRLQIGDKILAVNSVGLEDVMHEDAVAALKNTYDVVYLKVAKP

Compound: CC[C@H](C)[C@@H]1NC(=O)[C@H]([C@@H](C)O)NC(=O)[C@H](CCCCN)NC(=O)[C@@H]2CCCN2C(=O)[C@H]([C@@H](C)O)NC(=O)CNC(=O)[C@H](CC(=O)O)NC(=O)CNC(=O)[C@H]([C@@H](C)O)NC(=O)[C@H](Cc2ccccc2)NC(=O)[C@H]([C@@H](C)O)NC(=O)[C@H]([C@@H](C)O)NC(=O)[C@H](CCC(=O)O)NC(=O)[C@H](CC(C)C)NC(=O)[C@H](Cc2c[nH]cn2)NC(=O)[C@H]([C@@H](C)O)NC(=O)[C@H](CCC(N)=O)NC(=O)CNC(=O)[C@H]2CCCN2C(=O)[C@@H](CCC(N)=O)NC(=O)[C@H]([C@@H](C)O)NC(=O)[C@H](C(C)C)NC(=O)[C@H](CCCNC(=N)N)NC1=O [compound 129]
- Ki (FP competition): 11.1 µM

Compound: CC[C@H](C)[C@@H]1NC(=O)[C@H]([C@@H](C)O)NC(=O)[C@H](CCCCN)NC(=O)[C@H]2CCCN2C(=O)[C@H]([C@@H](C)O)NC(=O)CNC(=O)[C@H](CC(=O)O)NC(=O)CNC(=O)[C@H]([C@@H](C)O)NC(=O)[C@H](Cc2ccccc2)NC(=O)[C@H]([C@@H](C)O)NC(=O)[C@H]([C@@H](C)O)NC(=O)[C@H](CCC(=O)O)NC(=O)[C@H](CC(C)C)NC(=O)[C@H](Cc2c[nH]cn2)NC(=O)[C@H]([C@@H](C)O)NC(=O)[C@H](CCC(N)=O)NC(=O)CNC(=O)[C@H]2CCCN2C(=O)[C@H](CCC(N)=O)NC(=O)[C@H]([C@@H](C)O)NC(=O)[C@H](C(C)C)NC(=O)[C@H](CCCNC(=N)N)NC1=O [compound 122]
- Ki (FP competition): 6.7 µM

Compound: CC[C@H](C)[C@@H]1NC(=O)[C@H]([C@@H](C)O)NC(=O)[C@H](CCCCN)NC(=O)[C@@H]2CCCN2C(=O)[C@H]([C@@H](C)O)NC(=O)CNC(=O)[C@H](CC(=O)O)NC(=O)CNC(=O)[C@H]([C@@H](C)O)NC(=O)[C@H](Cc2ccccc2)NC(=O)[C@H]([C@@H](C)O)NC(=O)[C@H]([C@@H](C)O)NC(=O)[C@H](CCC(=O)O)NC(=O)[C@H](CC(C)C)NC(=O)[C@H](Cc2c[nH]cn2)NC(=O)CNC(=O)[C@H](CCC(N)=O)NC(=O)CNC(=O)[C@H]2CCCN2C(=O)[C@H](CCC(N)=O)NC(=O)[C@H]([C@@H](C)O)NC(=O)[C@H](C(C)C)NC(=O)[C@H](CCCNC(=N)N)NC1=O [compound 25] (cyclo(GHLETTFTGDGTPKTIRVTQ[dP]GQ))
- Relative Ki (Ki mut/Ki WT): 3.00

Compound: CC[C@H](C)[C@@H]1NC(=O)[C@H](CC(N)=O)NC(=O)[C@H](CCCCN)NC(=O)[C@@H]2CCCN2C(=O)[C@H]([C@@H](C)O)NC(=O)CNC(=O)[C@H](CC(=O)O)NC(=O)CNC(=O)[C@H]([C@@H](C)O)NC(=O)[C@H](Cc2ccccc2)NC(=O)[C@H]([C@@H](C)O)NC(=O)[C@H]([C@@H](C)O)NC(=O)[C@H](CCC(=O)O)NC(=O)[C@H](CC(C)C)NC(=O)[C@H](Cc2c[nH]cn2)NC(=O)[C@H]([C@@H](C)O)NC(=O)[C@H](CCC(N)=O)NC(=O)CNC(=O)[C@H]2CCCN2C(=O)[C@H](CCC(N)=O)NC(=O)[C@H]([C@@H](C)O)NC(=O)[C@H](C(C)C)NC(=O)[C@H](CCCNC(=N)N)NC1=O [compound 39] (cyclo(THLETTFTGDGTPKNIRVTQ[dP]GQ))
- Relative Ki (Ki mut/Ki WT): 12.59

Compound: CC[C@H](C)[C@@H]1NC(=O)[C@H]([C@@H](C)O)NC(=O)[C@H](CCCCN)NC(=O)[C@@H]2CCCN2C(=O)[C@H]([C@@H](C)O)NC(=O)CNC(=O)[C@@H]2CCCN2C(=O)CNC(=O)[C@H]([C@@H](C)O)NC(=O)[C@H](Cc2ccccc2)NC(=O)[C@H]([C@@H](C)O)NC(=O)[C@H]([C@@H](C)O)NC(=O)[C@H](CCC(=O)O)NC(=O)[C@H](CC(C)C)NC(=O)[C@H](Cc2c[nH]cn2)NC(=O)[C@H]([C@@H](C)O)NC(=O)[C@H](CCC(N)=O)NC(=O)CNC(=O)[C@H]2CCCN2C(=O)[C@H](CCC(N)=O)NC(=O)[C@H]([C@@H](C)O)NC(=O)[C@H](C(C)C)NC(=O)[C@H](CCCNC(=N)N)NC1=O [compound 29] (cyclo(THLETTFTGPGTPKTIRVTQ[dP]GQ))
- Relative Ki (Ki mut/Ki WT): 1.60

Compound: CC[C@H](C)[C@@H]1NC(=O)[C@H]([C@@H](C)O)NC(=O)[C@H](CCCCN)N(C)C(=O)[C@@H]2CCCN2C(=O)[C@H]([C@@H](C)O)NC(=O)CNC(=O)[C@H](CC(=O)O)NC(=O)CNC(=O)[C@H]([C@@H](C)O)NC(=O)[C@H](Cc2ccccc2)NC(=O)[C@H]([C@@H](C)O)NC(=O)[C@H]([C@@H](C)O)NC(=O)[C@H](CCC(=O)O)NC(=O)[C@H](CC(C)C)NC(=O)[C@H](Cc2c[nH]cn2)NC(=O)[C@H]([C@@H](C)O)NC(=O)[C@H](CCC(N)=O)NC(=O)CNC(=O)[C@H]2CCCN2C(=O)[C@H](CCC(N)=O)NC(=O)[C@H]([C@@H](C)O)NC(=O)[C@H](C(C)C)NC(=O)[C@H](CCCNC(=N)N)NC1=O [SEQ ID NO: 96]
- fold improved binding affinity (FP competition, N-methylation): 2 fold
- Ki (FP competition): 0.5 ± 0.1 µM

Compound: Cyclo-(THLEAlloTTFTGDGTPKTIRVTQpG(Qα)) (THLEXTFTGDGTPKTIRVTQPGQ; cyclic; allo-threonine at 109; D-proline; cyclized peptide; (5)..(5) X is AlloT; (21)..(21) is D-AA) [SEQ ID NO: 80]
- effect on interaction with PSD-95-PDZ2 (in words) (FP competition): abolish the interaction

Compound: Cyclo-(THLETTFTGDGTPKSIRVTQpG(Qα)) (cyclo(THLETTFTGDGTPKSIRVTQ[dP]GQ); SMILES CC[C@H](C)[C@@H]1NC(=O)[C@H](CO)NC(=O)[C@H](CCCCN)NC(=O)[C@@H]2CCCN2C(=O)[C@H]([C@@H](C)O)NC(=O)CNC(=O)[C@H](CC(=O)O)NC(=O)CNC(=O)[C@H]([C@@H](C)O)NC(=O)[C@H](Cc2ccccc2)NC(=O)[C@H]([C@@H](C)O)NC(=O)[C@H]([C@@H](C)O)NC(=O)[C@H](CCC(=O)O)NC(=O)[C@H](CC(C)C)NC(=O)[C@H](Cc2c[nH]cn2)NC(=O)[C@H]([C@@H](C)O)NC(=O)[C@H](CCC(N)=O)NC(=O)CNC(=O)[C@H]2CCCN2C(=O)[C@H](CCC(N)=O)NC(=O)[C@H]([C@@H](C)O)NC(=O)[C@H](C(C)C)NC(=O)[C@H](CCCNC(=N)N)NC1=O) [SEQ ID NO: 50]
- fold lowered (decreased) binding affinity of the cyclic peptide (FP competition, relative to unsubstituted cyclic peptide): 25 fold

Compound: CC[C@H](C)[C@@H]1NC(=O)[C@H]([C@@H](C)O)NC(=O)[C@H](CCCCN)NC(=O)[C@@H]2CCCN2C(=O)[C@H]([C@@H](C)O)NC(=O)CNC(=O)[C@H](CC(=O)O)NC(=O)CNC(=O)[C@H]([C@@H](C)O)NC(=O)[C@H](Cc2ccccc2)NC(=O)[C@H]([C@@H](C)O)N(C)C(=O)[C@H]([C@@H](C)O)NC(=O)[C@H](CCC(=O)O)NC(=O)[C@H](CC(C)C)NC(=O)[C@H](Cc2c[nH]cn2)NC(=O)[C@H]([C@@H](C)O)NC(=O)[C@H](CCC(N)=O)NC(=O)CNC(=O)[C@H]2CCCN2C(=O)[C@H](CCC(N)=O)NC(=O)[C@H]([C@@H](C)O)NC(=O)[C@H](C(C)C)NC(=O)[C@H](CCCNC(=N)N)NC1=O [compound 89]
- Ki (FP competition): 1.47 µM

Compound: CC[C@H](C)[C@@H]1NC(=O)[C@H]([C@@H](C)O)NC(=O)[C@H](CCCCN)NC(=O)[C@@H]2CCCN2C(=O)[C@H]([C@@H](C)O)NC(=O)CNC(=O)[C@H](CC(=O)O)NC(=O)CNC(=O)[C@H]([C@@H](C)O)NC(=O)[C@H](Cc2ccccc2)NC(=O)[C@H](CCC(=O)O)NC(=O)[C@H]([C@@H](C)O)NC(=O)[C@H](CCC(=O)O)NC(=O)[C@H](CC(C)C)NC(=O)[C@H](Cc2c[nH]cn2)NC(=O)[C@H]([C@@H](C)O)NC(=O)[C@H](CCC(N)=O)NC(=O)CNC(=O)[C@H]2CCCN2C(=O)[C@H](CCC(N)=O)NC(=O)[C@H]([C@@H](C)O)NC(=O)[C@H](C(C)C)NC(=O)[C@H](CCCNC(=N)N)NC1=O [compound 53] (cyclo(THLETEFTGDGTPKTIRVTQ[dP]GQ))
- Ki (FP competition): 11.5 µM
- Relative Ki (Ki mut/Ki WT): 0.34
